Results reported in publication PMC2962730 (Journal of neurochemistry, 2010).
Substitutions are numbered along the chain they refer to.

Columns and labels:
hVAChT Y60H [1] = target: T1, hVAChT Y60H (Homo sapiens, UniProt Q16572, Y60H); test: [3H]vesamicol saturation binding; settings: pH 7.4
T1 sequence (Q16572 1-532 Y60H): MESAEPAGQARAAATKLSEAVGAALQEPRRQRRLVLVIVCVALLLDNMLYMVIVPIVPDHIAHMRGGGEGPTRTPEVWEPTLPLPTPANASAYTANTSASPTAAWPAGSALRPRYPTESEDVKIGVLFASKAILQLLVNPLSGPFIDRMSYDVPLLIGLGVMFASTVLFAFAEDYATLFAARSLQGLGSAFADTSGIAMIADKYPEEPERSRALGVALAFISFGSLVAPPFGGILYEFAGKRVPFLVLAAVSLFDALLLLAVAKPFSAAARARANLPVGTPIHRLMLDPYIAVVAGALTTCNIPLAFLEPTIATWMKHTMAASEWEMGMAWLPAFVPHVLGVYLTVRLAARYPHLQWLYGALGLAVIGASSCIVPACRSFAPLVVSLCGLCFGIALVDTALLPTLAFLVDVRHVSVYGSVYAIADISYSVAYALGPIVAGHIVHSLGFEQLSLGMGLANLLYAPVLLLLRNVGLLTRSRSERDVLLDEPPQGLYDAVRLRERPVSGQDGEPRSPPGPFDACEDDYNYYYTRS

hVAChT wild-type = target: T2, hVAChT wild-type (Homo sapiens, UniProt Q16572); test: [3H]ACh transport; type: biochemical; settings: WT hVAChT, pH 7.4
T2 sequence (Q16572 1-532): T1 sequence (Q16572 1-532 Y60H) with H60Y

hVAChT Y60H [2] = target: T1, hVAChT Y60H; test: ACh equilibrium binding by competition against [3H]vesamicol
hVAChT W325H = target: T3, hVAChT W325H (Homo sapiens, UniProt Q16572, W325H); test: [3H]ACh transport; type: biochemical
T3 sequence (Q16572 1-532 W325H): T1 sequence (Q16572 1-532 Y60H) with H60Y, W325H

hVAChT A334F = target: T4, hVAChT A334F (Homo sapiens, UniProt Q16572, A334F); test: [3H]ACh transport; type: biochemical
T4 sequence (Q16572 1-532 A334F): T1 sequence (Q16572 1-532 Y60H) with H60Y, A334F

hVAChT F392A = target: T5, hVAChT F392A (Homo sapiens, UniProt Q16572, F392A); test: ACh equilibrium binding by competition against [3H]vesamicol
T5 sequence (Q16572 1-532 F392A): T1 sequence (Q16572 1-532 Y60H) with H60Y, F392A

Row | Vmax/Bmax, ACh transport normalized to Bmax (hVAChT wild-type) | Km (hVAChT wild-type; read-out: KM, Michaelis-Menten constant for ACh transport) | Kd (hVAChT Y60H [2]) | FHA, fraction of the ACh sites that have high affinity (hVAChT Y60H [2]; Y60H hVAChT, pH 7.4) | Vmax/Bmax, ACh transport normalized to Bmax (hVAChT W325H; pH 7.4) | Km (hVAChT W325H; read-out: KM, Michaelis-Menten constant for ACh transport, pH 7.4) | ACh transport rate relative to wild-type (as fast as) (hVAChT A334F; A334F hVAChT vs wild-type) | Vmax/Bmax, ACh transport normalized to Bmax (hVAChT A334F; A334F hVAChT, pH 7.4) | Km (hVAChT A334F; read-out: KM, Michaelis-Menten constant for ACh transport, A334F hVAChT, pH 7.4) | Kd (hVAChT F392A) | FHA, fraction of the ACh sites that have high affinity (hVAChT F392A; F392A hVAChT, pH 7.4) | SMILES | Bmax, maximal specific [3H]vesamicol binding (VAChT expression level) (hVAChT Y60H [1])
1 |  |  |  |  |  |  |  |  |  |  |  | O[C@@H]1CCCC[C@H]1N1CCC(c2ccccc2)CC1 (racemic) [vesamicol, ( )-trans-2-(4-phenylpiperidino)cyclohexanol] | 15 ± 1 pmol/mg
2 | 6.8 ± 0.5 min⁻¹ | 950 ± 200 µM | 11 mM | 0.82 ± 0.04 | 6.5 ± 1.1 min⁻¹ | 480 ± 170 µM | about one-half | 3.6 ± 0.8 min⁻¹ | 3000 ± 1300 µM | 7.9 ± 1.3 mM | 0.91 ± 0.06 | CC(=O)OCC[N+](C)(C)C [ACh, acetylcholine] | 
